Tested on: T cells isolated from mouse spleen
Assay: T cell proliferation inhibition, CFSE flow cytometry, CD3/CD28 activation
Type: cell-based
Settings: CD3/CD28 activated, 3 days; for inhibition at 0.01 µM / inhibition at 0.1 µM / inhibition at 1 µM / inhibition at 10 µM / inhibition at 30 µM / inhibition at 50 µM: Mus musculus, T-cell, 72 h, read-out: Proliferation inhibition rate (%)
Procedure: To verify the T cell proliferation inhibitory effect of the compounds according to the present invention, the following experiment was performed based on flow cytometry analysis using carboxyfluorescein diacetate succinimidyl ester (CFSE), a fluorescent dye that binds to intracellular molecules via covalent bonds.
Spleens were extracted from 7-week-old C57BL/6 mice, ground, and then separated into single cells using a strainer (40 μm pore size, SPL). Red blood cells were removed using ACK (Ammonium-Chloride-Potassium) lysis buffer to isolate white blood cells.
Finally, using a MACS Magnetic Stand and LS column, T cells were isolated from the spleen.
The T cells isolated from the spleen were resuspended in 1 mL of free medium (RPMI-1640+200 U/mL penicillin+200 μg/mL streptomycin), and 0.3 μL of CFSE (10 mM) was added. The mixture was incubated at 37° C. for 5 minutes.
Free medium (10 mL) was added to stop the reaction, and the cells were centrifuged to obtain the cell pellet.
RPMI 1640 medium containing 10% FBS, 100 U/mL penicillin, 100 μg/mL streptomycin, and resuspended the cells. The cells were then seeded into a 96-well plate at a density of 2×10^5 cells per well and activated with CD3 and CD28 antibodies (0.5 μg/mL each) to activate T cells.
The compound diluted in DMSO was added at concentrations of 10 nM, 100 nM, 1 μM, 10 μM, 30 μM, and 50 μM, with three wells per concentration, and cultured at 37° C. and 5% CO2 for three days. The cells were then analyzed using a FACS Canto instrument.
The proliferation inhibition rate (%) was calculated using the following formula: […]

Nc1ncccc1C(=O)NCCCCCCCCCCCCN1CCC2CCCCC2C1 (centres unmarked) [Compound 16, 2-Amino-N-(12-(octahydroisoquinolin-2 (1H)-yl)dodecyl)nicotinamide]
inhibition at 0.01 µM (compound 10 nM): 4.13% | inhibition at 0.1 µM (compound 100 nM): -2.93% | inhibition at 1 µM (compound 1 μM): 100% | inhibition at 10 µM (compound 10 μM): 100% | inhibition at 30 µM (compound 30 μM): 100% | inhibition at 50 µM (compound 50 μM): 100%

Nc1ncccc1C(=O)NCCCCCCCCCCCCN1CCc2ccccc2C1 [Compound 17, 2-Amino-N-(12-(3,4-dihydroisoquinolin-2(1H)-yl)dodecyl) nicotinamide]
Proliferation inhibition rate (%) (compound 10 nM, listed as PBK-2024-004, 0.01 µM): 0.00% | Proliferation inhibition rate (%) (compound 100 nM, listed as PBK-2024-004, 0.1 µM): −14.00% | Proliferation inhibition rate (%) (compound 1 μM, listed as PBK-2024-004, 1 µM): 100.00% | Proliferation inhibition rate (%) (compound 10 μM, listed as PBK-2024-004, 10 µM): 100.00%

CC1(C)CCN(CCCCCCCCCCCCNC(=O)c2cccnc2N)C1 [Compound 22, 2-Amino-N-(12-(3,3-dimethylpyrrolidin-1-yl)dodecyl) nicotinamide]
Proliferation inhibition rate (%) (compound 10 nM): −0.80% | Proliferation inhibition rate (%) (compound 100 nM): 100.00% | Proliferation inhibition rate (%) (compound 1 μM): 100.00% | Proliferation inhibition rate (%) (compound 10 μM): 100.00% | Proliferation inhibition rate (%) (compound 30 μM): 100.00% | Proliferation inhibition rate (%) (compound 50 μM): 100.00%

COC1CCN(CCCCCCCCCCCCNC(=O)c2cccnc2N)C1 (centres unmarked) [Compound 32, 2-Amino-N-(12-(3-methoxypyrrolidin-1-yl)dodecyl) nicotinamide]
Proliferation inhibition rate (%) (compound 10 nM, listed as PBK-2024-024, 0.01 µM): 0.29%

CN(CCCCCCCCCCCCNC(=O)c1cccnc1N)C1CCCCC1 [Compound 34, 2-Amino-N-(12-(cyclohexyl(methyl)amino)dodecyl) nicotinamide]
Proliferation inhibition rate (%) (compound 100 nM): 100.00% | Proliferation inhibition rate (%) (compound 1 μM): 100.00% | Proliferation inhibition rate (%) (compound 10 μM): 100.00% | Proliferation inhibition rate (%) (compound 30 μM): 100.00% | Proliferation inhibition rate (%) (compound 50 μM): 100.00%

CC1CN(CCCCCCCCCCCCNC(=O)c2cccnc2N)C(C)CN1.Cl (centres unmarked) [Compound 36, 2-Amino-N-(12-(2,5-dimethylpiperazin-1-yl)dodecyl) nicotinamide hydrochloride]
Proliferation inhibition rate (%) (compound 100 nM): 100.00% | Proliferation inhibition rate (%) (compound 1 μM): 100.00% | Proliferation inhibition rate (%) (compound 10 μM): 100.00% | Proliferation inhibition rate (%) (compound 30 μM): 100.00% | Proliferation inhibition rate (%) (compound 50 μM): 100.00%

C[C@H]1CNCCN1CCCCCCCCCCCCNC(=O)c1cccnc1N.Cl [Compound 37, (S)-2-Amino-N-(12-(2-methylpiperazin-1-yl)dodecyl) nicotinamide hydrochloride]
Proliferation inhibition rate (%) (compound 1 μM): 100.00% | Proliferation inhibition rate (%) (compound 10 μM): 100.00% | Proliferation inhibition rate (%) (compound 30 μM): 100.00% | Proliferation inhibition rate (%) (compound 50 μM): 100.00%

CC1CCCN(CCCCCCCCCCCCNC(=O)c2cccnc2N)CC1 (centres unmarked) [Compound 39, 2-Amino-N-(12-(4-methylazepan-1-yl)dodecyl) nicotinamide]
Proliferation inhibition rate (%) (compound 100 nM): 100.00% | Proliferation inhibition rate (%) (compound 1 μM): 100.00% | Proliferation inhibition rate (%) (compound 10 μM): 100.00% | Proliferation inhibition rate (%) (compound 30 μM): 100.00% | Proliferation inhibition rate (%) (compound 50 μM): 100.00%

CC1CN(C)C(CCCCCCCCCCCCNc2ccc3cncnc3n2)N1 (centres unmarked) [Compound 43]
Proliferation inhibition rate (%) (compound 100 nM): 100.00% | Proliferation inhibition rate (%) (compound 1 μM): 100.00% | Proliferation inhibition rate (%) (compound 10 μM): 100.00% | Proliferation inhibition rate (%) (compound 30 μM): 100.00% | Proliferation inhibition rate (%) (compound 50 μM): 100.00%

Nc1ncccc1C(=O)NCCCCCCCCCCCCN1CCC(O)CC1 [Compound 48, 2-Amino-N-(12-(4-hydroxypiperidin-1-yl)dodecyl) nicotinamide]
Proliferation inhibition rate (%) (compound 100 nM): 100.00% | Proliferation inhibition rate (%) (compound 1 μM): 100.00% | Proliferation inhibition rate (%) (compound 10 μM): 100.00% | Proliferation inhibition rate (%) (compound 30 μM): 100.00% | Proliferation inhibition rate (%) (compound 50 μM): 100.00%

CN(CCCCCCCCCCCCNC(=O)c1cccnc1N)C(C)(C)C [Compound 53, 2-Amino-N-(12-(tert-butyl(methyl)amino)dodecyl) nicotinamide]
Proliferation inhibition rate (%) (compound 100 nM): 100.00% | Proliferation inhibition rate (%) (compound 1 μM): 100.00% | Proliferation inhibition rate (%) (compound 10 μM): 100.00% | Proliferation inhibition rate (%) (compound 30 μM): 100.00% | Proliferation inhibition rate (%) (compound 50 μM): 100.00%

Nc1ncccc1C(=O)NCCCCCCCCCCCCN1CCN(CCO)CC1 [Compound 54, 2-Amino-N-(12-(4-(2-hydroxyethyl)piperazin-1-yl)dodecyl) nicotinamide]
Proliferation inhibition rate (%) (compound 100 nM): 100.00% | Proliferation inhibition rate (%) (compound 1 μM): 100.00% | Proliferation inhibition rate (%) (compound 10 μM): 100.00% | Proliferation inhibition rate (%) (compound 30 μM): 100.00% | Proliferation inhibition rate (%) (compound 50 μM): 100.00%

Cl.O=C(NCCCCCCCCCCCCN1CCNCC1)c1ccc(-c2ccccc2)o1 [Compound 90, 5-Phenyl-N-(12-(piperazin-1-yl)dodecyl) furan-2-carboxamide Hydrochloride]
Proliferation inhibition rate (%) (compound 10 μM): 100.00% | Proliferation inhibition rate (%) (compound 30 μM): 100.00% | Proliferation inhibition rate (%) (compound 50 μM): 100.00%

COC1CCN(CCCCCCCCCCCCNC(=O)c2cccnc2N)CC1 [Compound 94, 2-amino-N-(12-(4-methoxypiperidin-1-yl)dodecyl) nicotinamide]
Proliferation inhibition rate (%) (compound 100 nM): 100.00% | Proliferation inhibition rate (%) (compound 1 μM): 100.00% | Proliferation inhibition rate (%) (compound 10 μM): 100.00% | Proliferation inhibition rate (%) (compound 30 μM): 100.00% | Proliferation inhibition rate (%) (compound 50 μM): 100.00%

Nc1ncccc1C(=O)NCCCCCCCCCCCCN1CCN(C=O)CC1 [Compound 97, 2-amino-N-(12-(4-formylpiperazin-1-yl)dodecyl) nicotinamide]
Proliferation inhibition rate (%) (compound 1 μM): 100.00% | Proliferation inhibition rate (%) (compound 10 μM): 100.00% | Proliferation inhibition rate (%) (compound 30 μM): 100.00% | Proliferation inhibition rate (%) (compound 50 μM): 100.00%

CC(C)(C)OC(=O)NC1CCN(CCCCCCCCCCCCNC(=O)c2cccnc2N)CC1 [Compound 101, tert-Butyl (1-(12-(2-aminonicotinamido)dodecyl)piperidin-4-yl)carbamate]
inhibition at 0.01 µM (compound 10 nM): -0.15% | inhibition at 0.1 µM (compound 100 nM): 100% | inhibition at 1 µM (compound 1 μM): 100% | inhibition at 10 µM (compound 10 μM): 100% | inhibition at 30 µM (compound 30 μM): 100% | inhibition at 50 µM (compound 50 μM): 100%

CC(C)N1CCN(CCCCCCCCCCCCNC(=O)c2cccnc2N)CC1 [Compound 104, 2-Amino-N-(12-(4-isopropylpiperazin-1-yl)dodecyl) nicotinamide]
Proliferation inhibition rate (%) (compound 10 nM): 100.00% | Proliferation inhibition rate (%) (compound 100 nM): 100.00% | Proliferation inhibition rate (%) (compound 1 μM): 100.00% | Proliferation inhibition rate (%) (compound 10 μM): 100.00% | Proliferation inhibition rate (%) (compound 30 μM): 100.00% | Proliferation inhibition rate (%) (compound 50 μM): 100.00%

CC(C)(C)OC(=O)N1CCN(CCCCCCCCCCCCNC(=O)c2cccnc2N)CC1 [Compound 111, tert-butyl-4-(12-(2-aminonicotinamido)dodecyl) piperazine-1-carboxylate]
Proliferation inhibition rate (%) (compound 10 nM): 0.00% | Proliferation inhibition rate (%) (compound 100 nM): 100.00% | Proliferation inhibition rate (%) (compound 1 μM): 100.00% | Proliferation inhibition rate (%) (compound 10 μM): 100.00% | Proliferation inhibition rate (%) (compound 30 μM): 100.00% | Proliferation inhibition rate (%) (compound 50 μM): 100.00%

CN1CCN(CCCCCCCCCCCCNC(=O)c2cccnc2F)CC1 [Compound 121, 2-fluoro-N-(12-(4-methylpiperazin-1-yl)dodecyl) nicotinamide]
Proliferation inhibition rate (%) (compound 10 nM): 0.00% | Proliferation inhibition rate (%) (compound 100 nM): 0.00% | Proliferation inhibition rate (%) (compound 1 μM): 0.00% | Proliferation inhibition rate (%) (compound 10 μM): 30.00% | Proliferation inhibition rate (%) (compound 30 μM): 100.00% | Proliferation inhibition rate (%) (compound 50 μM): 100.00%

Nc1ncccc1C(=O)NCCCCCCCCCCCCN1CC(F)(F)C1 [Compound 122, 2-Amino-N-(12-(3,3-difluoroazetidin-1-yl)dodecyl) nicotinamide]
Proliferation inhibition rate (%) (compound 10 nM): 0.00% | Proliferation inhibition rate (%) (compound 100 nM): 0.00% | Proliferation inhibition rate (%) (compound 1 μM): 80.00% | Proliferation inhibition rate (%) (compound 10 μM): 100.00% | Proliferation inhibition rate (%) (compound 30 μM): 100.00% | Proliferation inhibition rate (%) (compound 50 μM): 100.00%

COC1CCN(CCCCCCCCCCCCNC(=O)c2cccnc2N)C1 (centres unmarked) [Compound 126, 2-amino-N-(12-(3-methoxypyrrolidin-1-yl)dodecyl) nicotinamide]
Proliferation inhibition rate (%) (compound 10 nM, listed as K-PB-48, 0.01 µM): 0.00% | Proliferation inhibition rate (%) (compound 100 nM): 100.00% | Proliferation inhibition rate (%) (compound 1 μM): 100.00% | Proliferation inhibition rate (%) (compound 10 μM): 100.00% | Proliferation inhibition rate (%) (compound 30 μM): 100.00% | Proliferation inhibition rate (%) (compound 50 μM): 100.00%

— patent publication US20260184700A1, “PDK1 REGULATORY COMPOUND AND COMPOSITION CONTAINING THE SAME” (PROVIBIO CO., LTD., priority 2024, published 2026)
